The source of these data is ChEMBL document CHEMBL5236603, “Discovery of mobocertinib, a potent, oral inhibitor of EGFR exon 20 insertion mutations in non-small cell lung cancer” (Bioorg Med Chem Lett, 2023).

Data set [1] in a line: Inhibition of mouse EGFR D770_N771insNPG mutant stably expressed in mouse BaF3 cells assessed as cell viability incubated for 3 days by Cell Titer-Glo assay. Format: cell-based. The settings on record: BaF3, 72 h.
Data set [2] deals with T1, Epidermal growth factor receptor (Homo sapiens, UniProt P00533). Put plainly: Inhibition of […]-induced EGFR phosphorylation in human A549 cells pretreated for 2 hrs followed by EGF stimulation by immune assay. The data set is classed as cell-based.
T1 sequence (P00533 whole entry): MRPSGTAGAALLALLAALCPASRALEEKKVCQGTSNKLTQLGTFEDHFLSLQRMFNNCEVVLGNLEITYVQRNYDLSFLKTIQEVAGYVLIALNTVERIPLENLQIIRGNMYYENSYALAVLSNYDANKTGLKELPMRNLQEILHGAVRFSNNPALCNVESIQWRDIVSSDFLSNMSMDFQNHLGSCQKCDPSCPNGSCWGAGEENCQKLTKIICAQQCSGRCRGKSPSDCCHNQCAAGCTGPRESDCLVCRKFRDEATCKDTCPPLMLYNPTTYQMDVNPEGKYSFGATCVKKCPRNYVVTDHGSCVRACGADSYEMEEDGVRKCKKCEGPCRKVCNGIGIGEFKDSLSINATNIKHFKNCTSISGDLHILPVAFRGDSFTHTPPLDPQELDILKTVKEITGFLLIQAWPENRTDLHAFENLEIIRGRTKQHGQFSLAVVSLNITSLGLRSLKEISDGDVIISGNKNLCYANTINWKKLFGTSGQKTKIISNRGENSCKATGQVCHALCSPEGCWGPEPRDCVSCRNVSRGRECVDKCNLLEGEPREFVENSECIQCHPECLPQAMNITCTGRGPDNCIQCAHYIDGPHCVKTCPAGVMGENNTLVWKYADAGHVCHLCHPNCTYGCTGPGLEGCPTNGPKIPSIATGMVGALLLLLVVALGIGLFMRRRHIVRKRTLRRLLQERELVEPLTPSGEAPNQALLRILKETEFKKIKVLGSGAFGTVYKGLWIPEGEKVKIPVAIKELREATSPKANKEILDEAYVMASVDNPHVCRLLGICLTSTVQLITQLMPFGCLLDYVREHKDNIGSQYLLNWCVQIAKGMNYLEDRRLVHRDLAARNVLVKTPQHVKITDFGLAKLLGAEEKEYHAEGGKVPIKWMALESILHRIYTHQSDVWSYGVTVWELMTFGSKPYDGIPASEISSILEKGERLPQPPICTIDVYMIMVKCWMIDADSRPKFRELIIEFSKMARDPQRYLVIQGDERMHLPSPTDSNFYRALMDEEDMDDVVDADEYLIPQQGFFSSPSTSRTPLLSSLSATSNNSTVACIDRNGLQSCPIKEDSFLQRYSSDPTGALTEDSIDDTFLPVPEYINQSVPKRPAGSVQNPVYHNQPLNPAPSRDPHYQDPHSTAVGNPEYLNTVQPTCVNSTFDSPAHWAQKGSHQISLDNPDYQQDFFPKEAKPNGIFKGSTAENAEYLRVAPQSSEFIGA
Data set [3] in a line: Cmax in CD-1 mouse at 10 mg/kg, po by LC/MS/MS analysis. The settings on record: in vivo. The data set is classed as ADME, organism-based. More on the design: dose 10 mg/kg, route po.
A short description of data set [4]: AUClast in CD-1 mouse at 10 mg/kg, po by LC/MS/MS analysis. Format: ADME, organism-based. More on the design: dose 10 mg/kg, route po. As to conditions: in vivo.
Data set [5] can be described thus: Cmax in CD-1 rat at 10 mg/kg, po by LC/MS/MS analysis. The data set is classed as ADME, organism-based. Set-up: dose 10 mg/kg, route po. The settings on record: in vivo.
In data set [6] the test system is BaF3. The experiment in a line: In vivo antitumor activity against mouse BaF3 cells expressing EGFR exon 20 insertion (ex20ins) ASV implanted in SCID mouse assessed as tumor regression at 100 mg/kg, po administered for 7 consecutive days. The data set is classed as functional. As to conditions: time 7 day.
For data set [7], the system named is BaF3. Put plainly: In vivo antitumor activity against mouse BaF3 cells expressing EGFR exon 20 insertion (ex20ins) ASV implanted in SCID mouse assessed as tumor growth inhibition at 30 mg/kg, po administered for 7 consecutive days. The data set is classed as functional. The settings on record: BaF3, 168 h, time 7 day, read-out: TGI.
Data set [8] in a line: Toxicity in SCID mouse assessed as body weight change at 100 mg/kg, po administered for 7 consecutive days. As to conditions: in vivo. Format: organism-based.
Data set [9] is described as follows: Inhibition of mouse EGFR L858R-T790M mutant stably expressed in mouse BaF3 cells assessed as cell viability incubated for 3 days by Cell Titer-Glo assay. Format: cell-based. As to conditions: BaF3, 72 h. On the technique in general: ATP-based viability assays read luminescence as a measure of living cells.
Data set [10] can be described thus: Inhibition of mouse EGFR N771_H773dup H773_V774insNPH […] (NPH) mutant stably expressed in mouse BaF3 cells assessed as cell viability incubated for 3 days by Cell Titer-Glo assay. As to conditions: BaF3, 72 h. Format: cell-based.
Data set [11] is described as follows: Inhibition of mouse EGFR A767_V769dup V769_D770insASV (ASV) mutant stably expressed in mouse BaF3 cells assessed as cell viability incubated for 3 days by Cell Titer-Glo assay. The settings on record: BaF3, 72 h. Format: cell-based.
Data set [12] concerns the target T1, Epidermal growth factor receptor. Put plainly: Inhibition of […]-induced wild type EGFR phosphorylation in human A-431 cells pretreated for 2 hrs followed by EGF stimulation by immune assay. The data set is classed as cell-based.
Data set [13] concerns BaF3. Put plainly: Anticancer activity against parental mouse BaF3 cells assessed as cell viability incubated for 3 days by Cell Titer-Glo assay. Format: functional, cell-based. The settings on record: BaF3, 72 h.
For data set [14], the target named is T1, Epidermal growth factor receptor. Put plainly: Inhibition of human EGFR at 1 uM by hotspot assay relative to control.
In data set [15] the target is Receptor tyrosine-protein kinase erbB-2 (Homo sapiens) (UniProt P04626). Put plainly: Inhibition of human HER2 at 1 uM by hotspot assay relative to control.
Chain of Receptor tyrosine-protein kinase erbB-2 (Homo sapiens) (P04626 whole entry): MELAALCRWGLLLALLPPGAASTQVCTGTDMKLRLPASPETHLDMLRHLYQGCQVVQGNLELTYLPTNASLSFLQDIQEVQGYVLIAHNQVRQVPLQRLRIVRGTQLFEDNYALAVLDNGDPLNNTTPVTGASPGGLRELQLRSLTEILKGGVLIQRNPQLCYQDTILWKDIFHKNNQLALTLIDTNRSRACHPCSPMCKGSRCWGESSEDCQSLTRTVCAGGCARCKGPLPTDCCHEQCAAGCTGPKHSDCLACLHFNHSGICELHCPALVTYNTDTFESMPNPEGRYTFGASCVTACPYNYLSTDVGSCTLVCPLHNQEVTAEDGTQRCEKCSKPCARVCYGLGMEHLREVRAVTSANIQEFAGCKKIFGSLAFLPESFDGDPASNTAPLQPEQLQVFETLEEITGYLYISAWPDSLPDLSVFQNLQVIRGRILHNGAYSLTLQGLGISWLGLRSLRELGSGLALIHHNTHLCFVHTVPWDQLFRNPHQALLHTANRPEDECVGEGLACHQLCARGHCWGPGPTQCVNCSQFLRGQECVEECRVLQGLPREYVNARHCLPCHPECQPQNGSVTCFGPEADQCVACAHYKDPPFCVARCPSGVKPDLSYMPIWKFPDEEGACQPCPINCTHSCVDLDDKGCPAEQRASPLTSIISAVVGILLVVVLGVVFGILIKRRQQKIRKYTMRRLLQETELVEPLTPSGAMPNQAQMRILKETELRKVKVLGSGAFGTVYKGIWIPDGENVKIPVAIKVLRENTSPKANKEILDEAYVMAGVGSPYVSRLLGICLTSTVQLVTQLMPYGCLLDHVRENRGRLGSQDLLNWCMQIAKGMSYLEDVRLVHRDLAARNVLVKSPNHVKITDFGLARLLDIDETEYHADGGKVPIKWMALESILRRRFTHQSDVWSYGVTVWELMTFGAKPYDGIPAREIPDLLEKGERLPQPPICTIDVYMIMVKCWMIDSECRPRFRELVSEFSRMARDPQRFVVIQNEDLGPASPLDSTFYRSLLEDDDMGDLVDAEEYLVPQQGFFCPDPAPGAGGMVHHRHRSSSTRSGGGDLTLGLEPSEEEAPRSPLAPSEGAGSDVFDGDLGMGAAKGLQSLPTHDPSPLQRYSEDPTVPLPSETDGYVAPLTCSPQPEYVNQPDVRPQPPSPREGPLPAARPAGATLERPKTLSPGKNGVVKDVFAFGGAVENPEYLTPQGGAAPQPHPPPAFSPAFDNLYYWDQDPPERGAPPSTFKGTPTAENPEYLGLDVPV
For data set [16], the target named is Receptor tyrosine-protein kinase erbB-4 (Homo sapiens) (UniProt Q15303). The experiment in a line: Inhibition of human HER4 at 1 uM by hotspot assay relative to control.
Chain of Receptor tyrosine-protein kinase erbB-4 (Homo sapiens) (Q15303 whole entry): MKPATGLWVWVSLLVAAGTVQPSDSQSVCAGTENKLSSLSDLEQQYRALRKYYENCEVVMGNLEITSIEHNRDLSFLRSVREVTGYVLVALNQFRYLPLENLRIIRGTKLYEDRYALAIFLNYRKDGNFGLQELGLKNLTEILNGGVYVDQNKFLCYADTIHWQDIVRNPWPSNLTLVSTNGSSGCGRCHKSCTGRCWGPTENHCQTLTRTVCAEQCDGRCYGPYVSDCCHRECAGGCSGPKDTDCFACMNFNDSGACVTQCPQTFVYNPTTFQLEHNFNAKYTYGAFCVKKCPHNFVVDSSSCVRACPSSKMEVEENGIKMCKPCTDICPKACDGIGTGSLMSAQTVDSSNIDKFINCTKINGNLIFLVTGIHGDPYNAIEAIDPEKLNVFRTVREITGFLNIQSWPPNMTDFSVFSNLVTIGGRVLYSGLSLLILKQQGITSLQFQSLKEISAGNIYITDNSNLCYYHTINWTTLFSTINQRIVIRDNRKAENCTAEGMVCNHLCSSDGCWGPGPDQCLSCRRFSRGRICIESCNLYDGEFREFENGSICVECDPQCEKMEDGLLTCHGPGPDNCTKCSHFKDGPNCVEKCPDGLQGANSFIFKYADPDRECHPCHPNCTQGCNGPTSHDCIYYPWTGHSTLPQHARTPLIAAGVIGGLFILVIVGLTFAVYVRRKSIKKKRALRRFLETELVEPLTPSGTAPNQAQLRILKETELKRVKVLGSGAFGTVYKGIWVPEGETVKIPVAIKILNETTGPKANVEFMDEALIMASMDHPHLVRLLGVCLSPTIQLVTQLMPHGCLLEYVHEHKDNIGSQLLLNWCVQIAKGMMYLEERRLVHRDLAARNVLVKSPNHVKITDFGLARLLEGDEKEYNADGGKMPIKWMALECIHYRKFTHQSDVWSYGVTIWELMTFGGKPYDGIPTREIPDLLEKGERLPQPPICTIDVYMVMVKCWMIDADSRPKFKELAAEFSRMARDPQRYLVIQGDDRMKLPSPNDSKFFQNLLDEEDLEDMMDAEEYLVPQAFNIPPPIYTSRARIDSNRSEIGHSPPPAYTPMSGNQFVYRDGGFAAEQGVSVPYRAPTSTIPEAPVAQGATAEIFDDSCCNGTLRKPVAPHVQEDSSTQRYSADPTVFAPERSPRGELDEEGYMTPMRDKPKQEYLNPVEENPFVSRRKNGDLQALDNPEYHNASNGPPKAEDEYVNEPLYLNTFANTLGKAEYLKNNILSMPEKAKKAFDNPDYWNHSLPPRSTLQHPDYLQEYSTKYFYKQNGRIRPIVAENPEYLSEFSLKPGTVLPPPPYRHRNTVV
Data set [17] addresses T2, Tyrosine-protein kinase ITK/TSK (Homo sapiens) (UniProt Q08881).
T2 sequence (whole entry): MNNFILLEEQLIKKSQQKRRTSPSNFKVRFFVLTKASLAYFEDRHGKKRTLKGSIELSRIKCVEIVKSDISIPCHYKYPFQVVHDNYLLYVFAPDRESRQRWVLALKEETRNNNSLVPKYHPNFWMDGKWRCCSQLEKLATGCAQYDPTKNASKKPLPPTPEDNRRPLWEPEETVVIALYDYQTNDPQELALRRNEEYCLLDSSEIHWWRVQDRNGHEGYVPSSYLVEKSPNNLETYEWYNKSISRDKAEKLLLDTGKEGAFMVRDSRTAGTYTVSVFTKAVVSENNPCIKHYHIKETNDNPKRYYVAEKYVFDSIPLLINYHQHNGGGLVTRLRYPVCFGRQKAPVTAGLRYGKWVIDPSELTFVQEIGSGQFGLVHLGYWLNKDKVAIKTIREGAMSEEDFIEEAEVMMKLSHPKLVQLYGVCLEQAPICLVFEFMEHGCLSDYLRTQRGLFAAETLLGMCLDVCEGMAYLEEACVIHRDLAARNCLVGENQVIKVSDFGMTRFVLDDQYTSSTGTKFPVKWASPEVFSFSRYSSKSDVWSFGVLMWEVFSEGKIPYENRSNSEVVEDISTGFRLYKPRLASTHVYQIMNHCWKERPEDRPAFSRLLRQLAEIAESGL
Put plainly: Inhibition of human ITK at 1 uM by hotspot assay relative to control.

For data set [18], the target named is T3, Tyrosine-protein kinase Tec (Homo sapiens) (UniProt P42680).
T3 sequence (whole entry): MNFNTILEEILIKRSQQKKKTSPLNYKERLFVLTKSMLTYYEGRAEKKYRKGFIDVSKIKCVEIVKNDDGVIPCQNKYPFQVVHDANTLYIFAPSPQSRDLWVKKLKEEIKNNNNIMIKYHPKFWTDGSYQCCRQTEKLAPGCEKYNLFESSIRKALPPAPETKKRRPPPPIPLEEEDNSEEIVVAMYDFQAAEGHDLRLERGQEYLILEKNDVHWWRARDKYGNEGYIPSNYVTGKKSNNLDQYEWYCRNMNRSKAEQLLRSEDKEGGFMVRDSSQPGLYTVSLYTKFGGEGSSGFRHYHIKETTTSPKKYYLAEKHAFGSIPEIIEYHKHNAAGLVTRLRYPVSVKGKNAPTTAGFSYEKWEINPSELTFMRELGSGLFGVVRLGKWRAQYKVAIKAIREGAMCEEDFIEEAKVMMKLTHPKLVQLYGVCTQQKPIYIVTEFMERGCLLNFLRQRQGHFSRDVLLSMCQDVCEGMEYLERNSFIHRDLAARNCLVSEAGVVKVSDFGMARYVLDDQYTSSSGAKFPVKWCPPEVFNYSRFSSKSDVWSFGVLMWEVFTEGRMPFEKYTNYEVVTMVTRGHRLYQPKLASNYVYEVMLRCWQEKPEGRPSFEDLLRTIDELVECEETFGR
The experiment in a line: Inhibition of human TEC at 1 uM by hotspot assay relative to control.

In data set [19] the target is Tyrosine-protein kinase BTK (Homo sapiens) (UniProt Q06187). Put plainly: Inhibition of human BTK at 1 uM by hotspot assay relative to control.
Chain of Tyrosine-protein kinase BTK (Homo sapiens) (Q06187 whole entry): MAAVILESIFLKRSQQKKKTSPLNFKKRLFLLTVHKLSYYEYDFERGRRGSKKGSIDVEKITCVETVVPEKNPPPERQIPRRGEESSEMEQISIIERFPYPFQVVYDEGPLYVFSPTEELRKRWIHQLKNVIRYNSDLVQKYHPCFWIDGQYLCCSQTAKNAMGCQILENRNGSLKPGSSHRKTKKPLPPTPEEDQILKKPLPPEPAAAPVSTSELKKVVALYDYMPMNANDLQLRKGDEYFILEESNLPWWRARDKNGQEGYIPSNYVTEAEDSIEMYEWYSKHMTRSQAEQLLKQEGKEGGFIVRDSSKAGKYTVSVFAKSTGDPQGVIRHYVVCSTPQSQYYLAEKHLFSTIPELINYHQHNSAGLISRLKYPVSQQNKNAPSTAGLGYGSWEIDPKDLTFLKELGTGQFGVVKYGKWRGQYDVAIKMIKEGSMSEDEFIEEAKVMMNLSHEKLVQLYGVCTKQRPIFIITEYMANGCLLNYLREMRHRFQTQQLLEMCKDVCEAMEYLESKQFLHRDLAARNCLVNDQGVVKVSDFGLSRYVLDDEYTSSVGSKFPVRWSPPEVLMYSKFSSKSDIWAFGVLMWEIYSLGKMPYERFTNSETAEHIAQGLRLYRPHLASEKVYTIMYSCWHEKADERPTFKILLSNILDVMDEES
Data set [20] deals with Tyrosine-protein kinase BTK (Homo sapiens), Q06187 [E41K]. Put plainly: Inhibition of human BTK E41K mutant at 1 uM by hotspot assay relative to control.
Chain of Tyrosine-protein kinase BTK (Homo sapiens), Q06187 [E41K] (Q06187 whole entry E41K): as the sequence (Q06187 whole entry) above, with E41K counted along it

Some results are limits rather than exact numbers.

A word on the IC50: it is the point on the concentration scale where inhibition reaches its midpoint. The Cmax is the peak of the concentration-time curve. What is called AUC(0-t) is the area under the concentration-time curve up to a stated or last time point. By inhibition is commonly meant the percentage by which the read-out fell short of the control. Regarding `C=CC(=O)Nc1cc(Nc2ncc(C(=O)OC(C)C)c(-c3cn(C)c4ccccc34)n2)c(OC)cc1N(C)CCN(C)C` [MOBOCERTINIB], the IC50 was found to be 4 nM in [1]; 31 nM in data set [2]; 21.3 nM in data set [9]; 18.1 nM in [10]; 11 nM in [11]; 34.5 nM in data set [12]. For the same compound, in the data set on BaF3 [13], the IC50 came to 3950 nM. Also, the Cmax turned out to be 82 ng/mL in data set [3] and 143 ng/mL in data set [5]. Also, the AUC(0-t) in data set [4] is 341 ng·h/mL. For the same compound, the Activity in the data set on BaF3 [6] is -98%; in [8] it was “Non-Toxic”. Besides, the inhibition in vivo at 30 mg/kg with BaF3 [7] is 77%. The inhibition in [14] is over 97%; in data set [15], over 97%; in [16], over 97%; in data set [17] it was over 81%; in data set [18] it was over 81%; in [19] it was over 81%. In addition, the inhibition in data set [20] is over 81%.
